{"source": "patent US20050209232A1", "about": "“Pyridazinone ureas as antagonists of alpha4 integrins” (priority 2004, published 2005)", "key": {"α4β1": {"molecular_target": "T1, α4β1 (Homo sapiens, UniProt P05556+P13612)", "T1 construct": "Ramos cells, (50 μL at 2×10^6/mL) labeled with 5 μM Calcein AM; endogenous in cells; host or cells: Ramos cells", "T1 sequence (P05556 21-798, one chain of several)": "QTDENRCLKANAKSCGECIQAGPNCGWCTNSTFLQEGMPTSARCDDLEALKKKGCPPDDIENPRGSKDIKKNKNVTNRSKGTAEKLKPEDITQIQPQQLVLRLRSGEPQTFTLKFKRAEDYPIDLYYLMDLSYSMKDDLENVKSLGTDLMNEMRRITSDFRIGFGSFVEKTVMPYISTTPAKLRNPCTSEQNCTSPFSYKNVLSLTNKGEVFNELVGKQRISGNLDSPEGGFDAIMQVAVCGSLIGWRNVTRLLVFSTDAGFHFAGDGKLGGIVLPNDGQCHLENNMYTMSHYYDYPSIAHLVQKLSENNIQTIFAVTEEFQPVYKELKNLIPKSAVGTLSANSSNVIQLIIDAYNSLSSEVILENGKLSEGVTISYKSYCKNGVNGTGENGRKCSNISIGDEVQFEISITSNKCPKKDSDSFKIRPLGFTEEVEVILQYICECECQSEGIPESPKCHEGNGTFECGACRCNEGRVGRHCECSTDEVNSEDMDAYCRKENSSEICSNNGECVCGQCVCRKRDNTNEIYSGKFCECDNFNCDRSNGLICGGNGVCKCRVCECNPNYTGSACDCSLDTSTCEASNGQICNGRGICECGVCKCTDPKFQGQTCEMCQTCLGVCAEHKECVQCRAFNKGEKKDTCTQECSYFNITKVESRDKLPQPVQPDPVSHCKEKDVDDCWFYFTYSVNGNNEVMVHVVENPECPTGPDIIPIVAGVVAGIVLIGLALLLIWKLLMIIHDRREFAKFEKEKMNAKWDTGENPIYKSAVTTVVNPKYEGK", "experiment": "Ramos Cell Adhesion Assay (α4β1 Mediated Adhesion/VCAM-1)", "type": "cell-based", "conditions": "Ramos cells adhering to recombinant hVCAM-1", "protocol": "Ramos Cell Adhesion Assay (α4β1 Mediated Adhesion/VCAM-1)\nImmulon 96 well plates (Dynex) were coated with 100 μL recombinant hVCAM-1 at 4.0 μg/mL in 0.05 M NaCO3 buffer pH 9.0 overnight at 4° C. (R&D Systems). Plates were washed 2 times in PBS with 1% BSA and blocked for 1 h@room temperature in this buffer. PBS was removed and compounds to be tested (50 μL) were added at 2× concentration. Ramos cells, (50 μL at 2×10^6/mL) labeled with 5 μM Calcein AM (Molecular Probes) for 1 h at 37° C., were added to each well and allowed to adhere for 1 h at room temperature. Plates were washed 4 × in PBS+1% BSA and cells were lysed for 15 minutes in 100 μL of 1 M Tris pH 8.0 with 1% SDS. The plate was read at 485 nm excitation and 530 nm emission."}, "human α4β7 integrin": {"molecular_target": "T2, human α4β7 integrin (Homo sapiens, UniProt P13612+P26010)", "T2 construct": "expressed in transfected cells; host or cells: K562 cells, stably transfected", "T2 sequence (P13612 34-1032)": "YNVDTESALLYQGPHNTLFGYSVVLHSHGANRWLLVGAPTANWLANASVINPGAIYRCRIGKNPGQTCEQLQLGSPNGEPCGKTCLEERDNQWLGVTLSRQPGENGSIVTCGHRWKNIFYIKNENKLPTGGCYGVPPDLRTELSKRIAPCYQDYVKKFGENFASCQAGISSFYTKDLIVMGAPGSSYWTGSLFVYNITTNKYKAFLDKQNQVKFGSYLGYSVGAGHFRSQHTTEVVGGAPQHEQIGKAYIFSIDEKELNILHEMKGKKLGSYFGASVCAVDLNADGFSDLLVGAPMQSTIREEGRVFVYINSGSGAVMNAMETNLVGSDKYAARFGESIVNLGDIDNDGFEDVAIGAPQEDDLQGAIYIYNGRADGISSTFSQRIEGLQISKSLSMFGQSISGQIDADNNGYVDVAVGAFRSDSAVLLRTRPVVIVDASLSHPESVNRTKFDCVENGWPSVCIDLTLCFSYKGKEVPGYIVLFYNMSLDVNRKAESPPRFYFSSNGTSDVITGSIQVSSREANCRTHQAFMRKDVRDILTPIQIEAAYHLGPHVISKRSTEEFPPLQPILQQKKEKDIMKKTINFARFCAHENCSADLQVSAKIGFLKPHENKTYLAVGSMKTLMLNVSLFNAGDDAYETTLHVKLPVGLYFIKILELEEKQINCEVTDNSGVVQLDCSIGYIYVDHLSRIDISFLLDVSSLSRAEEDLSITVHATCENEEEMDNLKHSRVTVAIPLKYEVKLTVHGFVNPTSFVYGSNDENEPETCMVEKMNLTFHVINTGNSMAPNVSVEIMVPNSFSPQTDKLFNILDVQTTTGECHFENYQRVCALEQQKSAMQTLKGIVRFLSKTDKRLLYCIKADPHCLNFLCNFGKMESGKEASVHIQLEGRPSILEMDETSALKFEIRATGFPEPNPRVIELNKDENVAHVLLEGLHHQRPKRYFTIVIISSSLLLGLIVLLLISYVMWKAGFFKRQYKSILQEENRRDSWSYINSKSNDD", "T2 sequence (P26010 20-798)": "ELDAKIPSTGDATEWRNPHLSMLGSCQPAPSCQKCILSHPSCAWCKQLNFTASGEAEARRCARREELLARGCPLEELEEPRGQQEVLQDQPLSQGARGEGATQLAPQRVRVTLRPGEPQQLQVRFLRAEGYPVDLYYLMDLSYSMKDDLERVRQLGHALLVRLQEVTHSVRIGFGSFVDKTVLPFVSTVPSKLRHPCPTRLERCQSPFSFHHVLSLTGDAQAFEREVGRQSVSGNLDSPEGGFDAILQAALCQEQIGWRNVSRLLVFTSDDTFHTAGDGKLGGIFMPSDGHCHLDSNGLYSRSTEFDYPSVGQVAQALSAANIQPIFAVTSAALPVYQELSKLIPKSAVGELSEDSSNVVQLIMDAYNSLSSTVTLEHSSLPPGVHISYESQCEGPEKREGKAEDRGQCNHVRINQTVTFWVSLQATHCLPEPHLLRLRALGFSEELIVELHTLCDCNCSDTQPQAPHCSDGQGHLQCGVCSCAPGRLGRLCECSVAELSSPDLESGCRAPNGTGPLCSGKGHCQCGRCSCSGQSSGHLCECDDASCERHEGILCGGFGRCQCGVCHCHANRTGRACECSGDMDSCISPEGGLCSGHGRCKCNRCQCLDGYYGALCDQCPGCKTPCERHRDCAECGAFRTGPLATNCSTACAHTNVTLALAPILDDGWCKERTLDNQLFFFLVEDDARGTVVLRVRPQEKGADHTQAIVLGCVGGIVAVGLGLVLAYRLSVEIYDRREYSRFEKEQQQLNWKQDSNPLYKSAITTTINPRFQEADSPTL", "experiment": "α4β7-K562 Cell Adhesion Assay (α4β7 Mediated Adhesion/MAdCAM-1)", "type": "cell-based", "conditions": "K562 cells expressing human α4β7 adhering to FLAG-hMAdCAM-1, 1 mM Mn2+", "protocol": "α4β7-K562 Cell Adhesion Assay (α4β7 Mediated Adhesion/MAdCAM-1)\nM2 anti-FLAG Antibody Coated 96-well plates (Sigma) were coated for 1 hour at 4° C. with 2-8 μL/well recombinant FLAG-hMAdCAM-1 contained in 100 μL of Dulbecco's PBS, pH 7.4, with 1% BSA and 1 mM Mn^2+ (PBS-BSA-Mn). Plates were washed once with PBS-BSA-Mn. Buffer was removed and compounds to be tested (50 μL) were added at 2× concentration. Stably transfected K562 cells expressing human α4β7 integrin, (50 μL at 2×10^6/mL) that had been labeled with 100 μg/mL carboxymethyl fluorescein diacetate succinimidyl ester (CFDA-SE; Molecular Probes) for 15 min at 37° C. were added to each well and allowed to adhere for 1 h at room temperature. Plates were washed 4× in PBS-BSA-Mn and then cells were lysed for 2 min by addtion of 100 μL of PBS without Ca^2+, Mg^2+ supplemented with 0.1 M NaOH. The plate was read on a 96-well fluorescent plate reader at 485 nm excitation and 530 nm emission."}}, "note": "pIC50: −log10 of the molar value.", "data": [{"smiles": "COc1cnn(CCO)c(=O)c1-c1ccc(C[C@H](NC(=O)NC2CCCCC2)C(=O)O)cc1", "note": "[Cpd 3]", "values": [{"measurement": "pIC50", "setting": "α4β1", "value": "< 5.30"}, {"measurement": "pIC50", "setting": "human α4β7 integrin", "value": 6.51}]}, {"smiles": "COc1cnn(C)c(=O)c1-c1ccc(C[C@H](NC(=O)NCCO)C(=O)O)cc1", "note": "[Cpd 7]", "values": [{"measurement": "pIC50", "setting": "α4β1", "value": "< 5.30"}, {"measurement": "pIC50", "setting": "human α4β7 integrin", "value": 6.10}]}, {"smiles": "COc1cnn(CCO)c(=O)c1-c1ccc(C[C@H](NC(=O)Nc2c(Cl)cccc2Cl)C(=O)O)cc1", "note": "[Cpd 2]", "values": [{"measurement": "pIC50", "setting": "α4β1", "value": 5.54}, {"measurement": "pIC50", "setting": "human α4β7 integrin", "value": 7.55}]}, {"smiles": "COc1cnn(C)c(=O)c1-c1ccc(C[C@H](NC(=O)N(O)C2CCCCC2)C(=O)O)cc1", "note": "[Cpd 26]", "values": [{"measurement": "pIC50", "setting": "α4β1", "value": "< 5.30"}, {"measurement": "pIC50", "setting": "human α4β7 integrin", "value": 6.22}]}, {"smiles": "COc1cnn(C)c(=O)c1-c1ccc(C[C@H](NC(=O)N2CCC(O)C2)C(=O)O)cc1", "note": "(mixture of isomers) [Cpd 6]", "values": [{"measurement": "pIC50", "setting": "α4β1", "value": "< 5.30"}, {"measurement": "pIC50", "setting": "human α4β7 integrin", "value": 6.42}]}, {"smiles": "COc1cnn(C)c(=O)c1-c1ccc(C[C@H](NC(=O)N(Cc2ccccc2)c2ccccc2)C(=O)O)cc1", "note": "[Cpd 48]", "values": [{"measurement": "pIC50", "setting": "α4β1", "value": "< 5.30"}, {"measurement": "pIC50", "setting": "human α4β7 integrin", "value": 7.17}]}, {"smiles": "COc1cnn(C)c(=O)c1-c1ccc(C[C@H](NC(=O)N2CCN(C)CC2)C(=O)O)cc1", "note": "[Cpd 5]", "values": [{"measurement": "pIC50", "setting": "α4β1", "value": "< 5.30"}, {"measurement": "pIC50", "setting": "human α4β7 integrin", "value": 6.33}]}, {"smiles": "COc1cnn(C)c(=O)c1-c1ccc(C[C@H](NC(=O)N(C)CCO)C(=O)O)cc1", "note": "[Cpd 14]", "values": [{"measurement": "pIC50", "setting": "α4β1", "value": "< 5.30"}, {"measurement": "pIC50", "setting": "human α4β7 integrin", "value": 7.03}]}, {"smiles": "COc1cnn(C)c(=O)c1-c1ccc(C[C@H](NC(=O)N2CCC[C@@H]2CNc2ccccc2)C(=O)O)cc1", "note": "[Cpd 38]", "values": [{"measurement": "pIC50", "setting": "α4β1", "value": "< 5.30"}, {"measurement": "pIC50", "setting": "human α4β7 integrin", "value": 6.01}]}, {"smiles": "COc1cnn(C)c(=O)c1-c1ccc(C[C@H](NC(=O)N2CCCN(c3nc4ccccc4o3)CC2)C(=O)O)cc1", "note": "[Cpd 30]", "values": [{"measurement": "pIC50", "setting": "α4β1", "value": "< 5.30"}, {"measurement": "pIC50", "setting": "human α4β7 integrin", "value": 6.81}]}, {"smiles": "COc1cnn(C)c(=O)c1-c1ccc(C[C@H](NC(=O)N(C)c2ccccn2)C(=O)O)cc1", "note": "[Cpd 54]", "values": [{"measurement": "pIC50", "setting": "α4β1", "value": "< 5.30"}, {"measurement": "pIC50", "setting": "human α4β7 integrin", "value": 6.06}]}, {"smiles": "COc1cnn(C)c(=O)c1-c1ccc(C[C@H](NC(=O)N(c2ccccc2)C(C)C)C(=O)O)cc1", "note": "[Cpd 42]", "values": [{"measurement": "pIC50", "setting": "α4β1", "value": "< 5.30"}, {"measurement": "pIC50", "setting": "human α4β7 integrin", "value": 7.04}]}, {"smiles": "CCN(C(=O)N[C@@H](Cc1ccc(-c2c(OC)cnn(C)c2=O)cc1)C(=O)O)c1cc(O)ccc1C", "note": "[Cpd 44]", "values": [{"measurement": "pIC50", "setting": "α4β1", "value": "< 5.30"}, {"measurement": "pIC50", "setting": "human α4β7 integrin", "value": 7.62}]}, {"smiles": "COc1cnn(C)c(=O)c1-c1ccc(C[C@H](NC(=O)N2c3ccccc3CC2C)C(=O)O)cc1", "note": "(mixture of isomers) [Cpd 49]", "values": [{"measurement": "pIC50", "setting": "α4β1", "value": "< 5.30"}, {"measurement": "pIC50", "setting": "human α4β7 integrin", "value": 6.41}]}, {"smiles": "COc1cnn(C)c(=O)c1-c1ccc(C[C@H](NC(=O)N(C)c2ccccc2C(F)(F)F)C(=O)O)cc1", "note": "[Cpd 52]", "values": [{"measurement": "pIC50", "setting": "α4β1", "value": 5.38}, {"measurement": "pIC50", "setting": "human α4β7 integrin", "value": 7.43}]}]}
